Results on 21 molecules are retold here after ChEMBL document CHEMBL3351946, “Design and synthesis of potent antitumor water-soluble phenyl N-mustard-benzenealkylamide conjugates via a bioisostere approach” (Eur J Med Chem, 2014).

SMILES strings stand for the structures.

The subject of assay [1] is CCRF-CEM. Put plainly: Cytotoxicity against human CCRF-CEM cells assessed as growth inhibition after 72 hrs by Alamar Blue assay. The format is functional, cell-based.
Assay [2] in a line: Cytotoxicity against human HCT116 cells assessed as growth inhibition after 72 hrs by Alamar Blue assay. The format is functional, cell-based. As to conditions: HCT-116, 72 h.
Assay [3] can be described thus: Cytotoxicity against human PC3 cells assessed as growth inhibition after 72 hrs by Alamar Blue assay. The format is functional, cell-based. As to conditions: PC-3, 72 h. On the technique in general: The colour change of resazurin is a common sign of viable cells or microbes.
The nature of assay [4]: Cytotoxicity against human H460 cells assessed as growth inhibition after 72 hrs by Alamar Blue assay. The following applies: NCI-H460, 72 h. The format is functional, cell-based.
Assay [5] relates to CCRF-CEM. In words: Cytotoxicity against vinblastine-resistant human CCRF-CEM cells assessed as growth inhibition after 72 hrs by Alamar Blue assay. The format is functional, cell-based.
Assay [6] deals with CCRF-CEM. In words: Resistance factor, ratio of IC50 for vinblastine-resistant human CCRF-CEM cells to IC50 for human CCRF-CEM cells. The format is functional.
Assay [7] is described as follows: Cytotoxicity against human H1299 cells assessed as growth inhibition after 72 hrs by Alamar Blue assay. The format is functional, cell-based. The following applies: NCI-H1299, 72 h.

For the molecule `O=C(CCN1CCOCC1)Nc1ccc(NC(=O)Nc2ccc(N(CCCl)CCCl)cc2)cc1`, the IC50 – broadly, the concentration that inhibits the measured activity by half – with CCRF-CEM [1] was 1.06 µM; in assay [2] it was 7.02 µM; in assay [3], 9.74 µM; in assay [4], 3.95 µM; in the assay on CCRF-CEM [5] it was 23.4 µM; in assay [7], 15.2 µM. Also, the “Ratio IC50” value with CCRF-CEM [6] amounted to 22.09.
Take `O=C(Nc1ccc(N(CCCl)CCCl)cc1)Nc1cccc(C(=O)NCCN2CCCCC2)c1`: the half-maximal inhibitory concentration (IC50) with CCRF-CEM [1] was determined as 0.57 µM; in assay [2], 5.47 µM; in assay [3], 4.54 µM; in assay [4] it was 12.8 µM; in the assay with CCRF-CEM [5] it was 28.4 µM; in assay [7], 10.3 µM. The “Ratio IC50” value in the assay on CCRF-CEM [6] stood at 49.91.
Regarding `CN(C)CCNC(=O)c1ccc(NC(=O)Nc2ccc(N(CCCl)CCCl)cc2)cc1`, the concentration for half-maximal inhibition (IC50) stood at 0.57 µM in the assay on CCRF-CEM [1]; 5.64 µM in assay [2]; 6.25 µM in assay [3]; 31.6 µM in assay [4]; 106 µM with CCRF-CEM [5]; 32 µM in assay [7]. Moreover, in the assay with CCRF-CEM [6], the “Ratio IC50” value is given as 186.47.
Take `CCN(CC)CCC(=O)Nc1cccc(NC(=O)Nc2ccc(N(CCCl)CCCl)cc2)c1`: the IC50 in the assay with CCRF-CEM [1] came out at 0.86 µM; in assay [2], 3.21 µM; in assay [3], 13 µM; in assay [4] it was 6.79 µM; in the assay on CCRF-CEM [5], 13 µM; in assay [7], 5.77 µM. Moreover, in the assay with CCRF-CEM [6], the “Ratio IC50” value was 15.62.
For `O=C(CN1CCCC1)Nc1cccc(NC(=O)Nc2ccc(N(CCCl)CCCl)cc2)c1`, the IC50 stood at 3.41 µM with CCRF-CEM [1]; 5.41 µM in assay [2]; 12.8 µM in assay [3]; 6.55 µM in assay [4]; 0.97 µM with CCRF-CEM [5]; 9.36 µM in assay [7]. In addition, the “Ratio IC50” value with CCRF-CEM [6] turned out to be 0.28.
On to `O=C(CN1CCOCC1)Nc1ccc(NC(=O)Nc2ccc(N(CCCl)CCCl)cc2)cc1`, for which the IC50 with CCRF-CEM [1] amounted to 1.13 µM; in assay [2], 6.67 µM; in assay [3], 16 µM; in assay [4], 4.74 µM; with CCRF-CEM [5], 18.4 µM; in assay [7], 18.6 µM. The “Ratio IC50” value in the assay on CCRF-CEM [6] was 16.27.
On to `O=C(Nc1ccc(N(CCCl)CCCl)cc1)Nc1cccc(C(=O)NCCN2CCCC2)c1`, for which the IC50 in the assay on CCRF-CEM [1] turned out to be 0.53 µM; in assay [2], 4.9 µM; in assay [3], 6.54 µM; in assay [4] it was 34.1 µM; in the assay on CCRF-CEM [5] it was 126 µM; in assay [7] it was 18.7 µM. Besides, the “Ratio IC50” value in the assay on CCRF-CEM [6] turned out to be 238.42.
Consider `O=C(CN1CCCCC1)Nc1cccc(NC(=O)Nc2ccc(N(CCCl)CCCl)cc2)c1`, for which the 50% inhibitory concentration (IC50) in the assay on CCRF-CEM [1] was 1.35 µM; in assay [2] it was 7.5 µM; in assay [3], 10.1 µM; in assay [4] it was 5.62 µM; in the assay on CCRF-CEM [5] it was 1.33 µM; in assay [7] it was 8.55 µM. Moreover, in the assay on CCRF-CEM [6], the “Ratio IC50” value came out at 0.99.
Consider `O=C(CN1CCOCC1)Nc1cccc(NC(=O)Nc2ccc(N(CCCl)CCCl)cc2)c1`, for which the IC50 turned out to be 3.87 µM in the assay on CCRF-CEM [1]; 13 µM in assay [2]; 35.8 µM in assay [3]; 19.5 µM in assay [4]; 1.32 µM in the assay on CCRF-CEM [5]; 26.4 µM in assay [7]. In addition, in the assay on CCRF-CEM [6], the “Ratio IC50” value is 0.34.
Regarding `O=C(CCN1CCCCC1)Nc1cccc(NC(=O)Nc2ccc(N(CCCl)CCCl)cc2)c1`, the IC50 stood at 0.39 µM with CCRF-CEM [1]; 3.51 µM in assay [2]; 5.73 µM in assay [3]; 7.88 µM in assay [4]; 6.01 µM with CCRF-CEM [5]; 4.63 µM in assay [7]. Moreover, the “Ratio IC50” value in the assay on CCRF-CEM [6] was 15.41.
As for `CC[C@]1(O)C[C@H]2CN(CCc3c([nH]c4ccccc34)[C@@](C(=O)OC)(c3cc4c(cc3OC)N(C=O)[C@H]3[C@@](O)(C(=O)OC)[C@H](OC(C)=O)[C@]5(CC)C=CCN6CC[C@]43[C@@H]65)C2)C1` [VINCRISTINE], the IC50 in the assay with CCRF-CEM [1] is 0.00232 µM; in the assay on CCRF-CEM [5] it was 2.13 µM.
Take `CCN(CC)CC(=O)Nc1cccc(NC(=O)Nc2ccc(N(CCCl)CCCl)cc2)c1`: the half-maximal inhibitory concentration (IC50) in the assay on CCRF-CEM [1] was 2.01 µM; in assay [2], 4.62 µM; in assay [3] it was 13 µM; in assay [4], 5.67 µM; in the assay with CCRF-CEM [5] it was 1.38 µM; in assay [7] it was 11.7 µM. Besides, the “Ratio IC50” value in the assay with CCRF-CEM [6] was determined as 0.69.
Turning to `O=C(Nc1ccc(C(=O)NCCN2CCCC2)cc1)Nc1ccc(N(CCCl)CCCl)cc1`, the IC50 in the assay with CCRF-CEM [1] amounted to 0.56 µM; in assay [2], 6.48 µM; in assay [3], 4.53 µM; in assay [4], 17.8 µM; with CCRF-CEM [5] it was 133 µM; in assay [7], 18.5 µM. The “Ratio IC50” value in the assay with CCRF-CEM [6] was determined as 237.2.
`O=C(CN1CCC(N2CCCCC2)CC1)Nc1cccc(NC(=O)Nc2ccc(N(CCCl)CCCl)cc2)c1`: the IC50 in the assay on CCRF-CEM [1] worked out at 30.4 µM; in assay [2], 6.15 µM; in assay [3], 25.9 µM; in assay [4] it was 12.3 µM; in the assay with CCRF-CEM [5] it was 1.81 µM; in assay [7] it was 12.8 µM. In addition, in the assay on CCRF-CEM [6], the “Ratio IC50” value was 0.06.
For `CN(C)CC(=O)Nc1cccc(NC(=O)Nc2ccc(N(CCCl)CCCl)cc2)c1`, the IC50 with CCRF-CEM [1] came to 0.78 µM; in assay [2], 9.56 µM; in assay [3], 19 µM; in assay [4] it was 8.74 µM; in the assay on CCRF-CEM [5], 2.7 µM; in assay [7] it was 10.6 µM. Moreover, the “Ratio IC50” value in the assay with CCRF-CEM [6] was 3.46.
Consider `CN(C)CCC(=O)Nc1cccc(NC(=O)Nc2ccc(N(CCCl)CCCl)cc2)c1`, for which the IC50 in the assay on CCRF-CEM [1] came to 0.52 µM; in assay [2] it was 3.28 µM; in assay [3], 13.5 µM; in assay [4], 16.8 µM; with CCRF-CEM [5], 14.4 µM; in assay [7] it was 8.99 µM. Also, the “Ratio IC50” value with CCRF-CEM [6] is on record as 27.67.
With `O=C(CCN1CCC(N2CCCCC2)CC1)Nc1ccc(NC(=O)Nc2ccc(N(CCCl)CCCl)cc2)cc1`, the IC50 in the assay on CCRF-CEM [1] amounted to 0.72 µM; in assay [2], 11.1 µM; in assay [3] it was 30 µM; in assay [4], 14.5 µM; in the assay with CCRF-CEM [5], 120 µM; in assay [7] it was 36 µM. For the same molecule, in the assay on CCRF-CEM [6], the “Ratio IC50” value turned out to be 166.17.
For `O=C(Nc1ccc(C(=O)NCCN2CCCCC2)cc1)Nc1ccc(N(CCCl)CCCl)cc1`, the concentration for half-maximal inhibition (IC50) with CCRF-CEM [1] amounted to 0.43 µM; in assay [2], 5.25 µM; in assay [3], 4.25 µM; in assay [4], 9.44 µM; with CCRF-CEM [5], 48.8 µM; in assay [7] it was 7.58 µM. The “Ratio IC50” value with CCRF-CEM [6] amounted to 113.58.
In the case of `O=C(CCN1CCOCC1)Nc1cccc(NC(=O)Nc2ccc(N(CCCl)CCCl)cc2)c1`, the IC50 came to 3.1 µM with CCRF-CEM [1]; 16.8 µM in assay [2]; 35.5 µM in assay [3]; 38.5 µM in assay [4]; 4.84 µM in the assay on CCRF-CEM [5]; 15.9 µM in assay [7]. Moreover, the “Ratio IC50” value in the assay on CCRF-CEM [6] stood at 1.56.
`O=C(CCN1CCC(N2CCCCC2)CC1)Nc1cccc(NC(=O)Nc2ccc(N(CCCl)CCCl)cc2)c1`: the IC50 in the assay with CCRF-CEM [1] was found to be 1.63 µM; in assay [2], 15.7 µM; in assay [3], 22.1 µM; in assay [4] it was 14.2 µM; with CCRF-CEM [5] it was 1.53 µM; in assay [7], 11 µM. The “Ratio IC50” value in the assay on CCRF-CEM [6] worked out at 0.94.
With `CC[C@]1(O)C[C@@H]2CN(CCc3c([nH]c4ccccc34)[C@@](C(=O)OC)(c3cc4c(cc3OC)N(C)[C@H]3[C@@](O)(C(=O)OC)[C@H](OC(C)=O)[C@]5(CC)C=CCN6CC[C@]43[C@@H]65)C2)C1` [VINBLASTINE], the IC50 was found to be 0.0013 µM in the assay on CCRF-CEM [1] and 0.67 µM with CCRF-CEM [5].
